# Data taken from patent US9265253B2, “Use of macrocyclic picolinamides as fungicides” (DOW AGROSCIENCES LLC, priority 2013, dated 2016).
# Columns and labels:
# Assay type in all cases: in vivo
# [1] = tested on: Alternaria solani; test: Tomato Early Blight (ALTESO) disease control; conditions: 1 Day Protectant; for pest or weed control at 100 ppm: Alternaria solani, topical, 24 h, read-out: Disease Control ALTESO 1 DP
# Protocol: Technical grades of materials were dissolved in acetone, which were then mixed with nine volumes of water containing 110 ppm Triton X-100. The fungicide solutions were applied onto wheat seedlings using an automated booth sprayer to run-off. All sprayed plants were allowed to air dry prior to further handling. All fungicides were evaluated using the aforementioned method for their activity vs. all target diseases. Wheat leaf blotch and brown rust activity were also evaluated using track spray applications, in which case the fungicides were formulated as EC formulations, containing 0.1% Trycol 5941 in the spray solutions. Wheat plants (variety Yuma) were grown from seed in a greenhouse in 50% mineral soil/50% soil-less Metro mix until the first leaf was fully emerged, with 7-10 seedlings per pot. These plants were inoculated with an aqueous spore suspension of Septoria tritici either prior to or after fungicide treatments. After inoculation the plants were kept in 100% relative humidity (one day in a dark dew chamber followed by two to three days in a lighted dew chamber at 20° C.) to permit spores to germinate and infect the leaf. The plants were then transferred to a greenhouse set at 20° C. for disease to develop. When disease symptoms were fully expressed on the 1st leaves of untreated plants, infection levels were assessed on a scale of 0 to 100 percent disease severity. Percent disease control was calculated using the ratio of disease severity on treated plants relative to untreated plants. Tomato plants (variety Outdoor girl) were propagated in soil-less Metro mix, with each pot having one plant, and used when 12 to 14 days old. Test plants were inoculated with an aqueous spore suspension of Alternaria solani 24 hr after fungicide treatments. After inoculation the plants were kept in 100% relative humidity (one day in a dark dew chamber followed by two to three days in a lighted dew chamber at 20° C.) to permit spores to germinate and infect the leaf. The plants were then transferred to a growth room at 22° C. for disease to develop. Fungicide formulation, application and disease assessment on the sprayed leaves followed the procedures as described in the Example A.
# [2] = tested on: Leptosphaeria nodorum; test: Wheat Glume Blotch (LEPTNO) disease control; conditions: 1 Day Protectant; for pest or weed control at 100 ppm: Parastagonospora nodorum, topical, 24 h, read-out: Disease Control LEPTNO 1 DP
# Protocol: Technical grades of materials were dissolved in acetone, which were then mixed with nine volumes of water containing 110 ppm Triton X-100. The fungicide solutions were applied onto wheat seedlings using an automated booth sprayer to run-off. All sprayed plants were allowed to air dry prior to further handling. All fungicides were evaluated using the aforementioned method for their activity vs. all target diseases. Wheat leaf blotch and brown rust activity were also evaluated using track spray applications, in which case the fungicides were formulated as EC formulations, containing 0.1% Trycol 5941 in the spray solutions. Wheat plants (variety Yuma) were grown from seed in a greenhouse in 50% mineral soil/50% soil-less Metro mix until the first leaf was fully emerged, with 7-10 seedlings per pot. These plants were inoculated with an aqueous spore suspension of Septoria tritici either prior to or after fungicide treatments. After inoculation the plants were kept in 100% relative humidity (one day in a dark dew chamber followed by two to three days in a lighted dew chamber at 20° C.) to permit spores to germinate and infect the leaf. The plants were then transferred to a greenhouse set at 20° C. for disease to develop. When disease symptoms were fully expressed on the 1st leaves of untreated plants, infection levels were assessed on a scale of 0 to 100 percent disease severity. Percent disease control was calculated using the ratio of disease severity on treated plants relative to untreated plants. Wheat plants (variety Yuma) were grown from seed in a greenhouse in 50% mineral soil/50% soil-less Metro mix until the first leaf was fully emerged, with 7-10 seedlings per pot. These plants were inoculated with an aqueous spore suspension of Leptosphaeria nodorum 24 hr after fungicide treatments. After inoculation the plants were kept in 100% relative humidity (one day in a dark dew chamber followed by two days in a lighted dew chamber at 20° C.) to permit spores to germinate and infect the leaf. The plants were then transferred to a greenhouse set at 20° C. for disease to develop. Fungicide formulation, application and disease assessment followed the procedures as described in the Example A.
# [3] = tested on: Blumeria graminis f. sp. hordei; Synonym: Erysiphe graminis f. sp. hordei; test: Barley Powdery Mildew (ERYSGH) disease control; conditions: 1 Day Protectant; for pest or weed control at 100 ppm: Blumeria graminis, 24 h, read-out: Disease Control ERYSGH 1 DP
# Protocol: Technical grades of materials were dissolved in acetone, which were then mixed with nine volumes of water containing 110 ppm Triton X-100. The fungicide solutions were applied onto wheat seedlings using an automated booth sprayer to run-off. All sprayed plants were allowed to air dry prior to further handling. All fungicides were evaluated using the aforementioned method for their activity vs. all target diseases. Wheat leaf blotch and brown rust activity were also evaluated using track spray applications, in which case the fungicides were formulated as EC formulations, containing 0.1% Trycol 5941 in the spray solutions. Wheat plants (variety Yuma) were grown from seed in a greenhouse in 50% mineral soil/50% soil-less Metro mix until the first leaf was fully emerged, with 7-10 seedlings per pot. These plants were inoculated with an aqueous spore suspension of Septoria tritici either prior to or after fungicide treatments. After inoculation the plants were kept in 100% relative humidity (one day in a dark dew chamber followed by two to three days in a lighted dew chamber at 20° C.) to permit spores to germinate and infect the leaf. The plants were then transferred to a greenhouse set at 20° C. for disease to develop. When disease symptoms were fully expressed on the 1st leaves of untreated plants, infection levels were assessed on a scale of 0 to 100 percent disease severity. Percent disease control was calculated using the ratio of disease severity on treated plants relative to untreated plants. Barley seedlings (variety Harrington) were propagated in soil-less Metro mix, with each pot having 8 to 12 plants, and used in the test when first leaf was fully emerged. Test plants were inoculated by dusting with infected stock plants 24 hr after fungicide treatments. After inoculation the plants were kept in a greenhouse set at 20° C. for disease to develop. Fungicide formulation, application and disease assessment on the sprayed leaves followed the procedures as described in the Example A.
Structure (SMILES),pest or weed control at 100 ppm [1] [%],pest or weed control at 100 ppm [2] [%],pest or weed control at 100 ppm [3] [%],also measured
COc1ccnc(C(=O)N[C@H]2CCC[C@H](Cc3ccc(F)cc3F)[C@@H](OC(=O)c3ccco3)[C@H](C)OC2=O)c1OCOC(C)=O [Compound F144],80 to 100,80 to 100,,
COc1ccnc(C(=O)N[C@H]2CCC[C@H](Cc3ccc(F)cc3)[C@@H](OCC3CC3)[C@H](C)OC2=O)c1OCOC(C)=O [Compound F98],,,,Disease Control ALTESO 1 DP ([1]; 100 ppm): A (80-100); Disease Control LEPTNO 1 DP ([2]; 100 ppm): A (80-100); Disease Control ERYSGH 1 DP ([3]; 100 ppm): A (80-100)
CCOCC(=O)OCOc1c(OC)ccnc1C(=O)N[C@H]1CCC[C@H](CCOC)[C@@H](Oc2ccccc2)[C@H](C)OC1=O [Compound F183],0 to 80,80 to 100,0 to 80,
COc1ccnc(C(=O)N[C@H]2CCC[C@H](Cc3ccc(F)cc3F)[C@@H](OC(=O)c3ccco3)[C@H](C)OC2=O)c1OCOC(=O)C(C)C [Compound F157],80 to 100,80 to 100,,
COc1ccnc(C(=O)N[C@H]2CCC[C@H](Cc3ccc(F)cc3)[C@@H](OCC(C)C)[C@H](C)OC2=O)c1OCOC(C)=O [Compound F102],,,0 to 80,
CCCO[C@@H]1[C@@H](Cc2ccccc2)CCC[C@H](NC(=O)c2nccc(OC)c2OCOC(C)=O)C(=O)O[C@H]1C [Compound F109],80 to 100,80 to 100,80 to 100,
C=C[C@H]1CCC[C@H](NC(=O)c2nccc(OC)c2OC(C)=O)C(=O)O[C@@H](C)[C@@H]1Oc1ccccc1 [Compound F86],0 to 80,80 to 100,0 to 80,
CCO[C@@H]1[C@@H](Cc2ccccc2)CCC[C@H](NC(=O)c2nccc(OC)c2OC(C)=O)C(=O)O[C@H]1C [Compound F87],80 to 100,80 to 100,80 to 100,
COc1ccnc(C(=O)N[C@H]2CCC[C@H](CC3CCCCC3)[C@@H](OCC(C)C)[C@H](C)OC2=O)c1OCOC(C)=O [Compound F113],80 to 100,,80 to 100,
CCOCC(=O)OCOc1c(OC)ccnc1C(=O)N[C@H]1CCC[C@H](Cc2ccccc2)[C@@H](OCC(C)C)[C@H](C)OC1=O [Compound F172],80 to 100,80 to 100,80 to 100,
C=C[C@H]1CCC[C@H](NC(=O)c2nccc(OC)c2OCOC(C)=O)C(=O)O[C@@H](C)[C@@H]1Oc1ccccc1 [Compound F146],80 to 100,80 to 100,0 to 80,
COc1ccnc(C(=O)N[C@H]2CCC[C@H](Cc3ccc(C)cc3)[C@@H](OCC(C)C)[C@H](C)OC2=O)c1OCOC(C)=O [Compound F126],0 to 80,,,
CCCO[C@@H]1[C@@H](Cc2ccccc2)CCC[C@H](NC(=O)c2nccc(OC)c2OC(=O)CCOC)C(=O)O[C@H]1C [Compound F198],80 to 100,80 to 100,80 to 100,
COc1ccnc(C(=O)N[C@H]2CCC[C@H](Cc3ccccc3)[C@@H](OCC(C)C)[C@H](C)OC2=O)c1OC(C)=O [Compound F70],0 to 80,80 to 100,80 to 100,
CCOCC(=O)OCOc1c(OC)ccnc1C(=O)N[C@H]1CCC[C@H](CC2CCCCC2)[C@@H](OCC(C)C)[C@H](C)OC1=O [Compound F175],80 to 100,,80 to 100,
COc1ccnc(C(=O)N[C@H]2CCC[C@H](Cc3ccccc3)[C@@H](OC3CCCC3)[C@H](C)OC2=O)c1OCOC(C)=O [Compound F110],,80 to 100,80 to 100,
CCOCC(=O)OCOc1c(OC)ccnc1C(=O)N[C@H]1CCC[C@H](Cc2ccccc2)[C@@H](OCC2CC2)[C@H](C)OC1=O [Compound F173],80 to 100,,80 to 100,
COc1ccnc(C(=O)N[C@H]2CCC[C@H](Cc3ccccc3)[C@@H](Oc3ccccc3)[C@H](C)OC2=O)c1OCOC(C)=O [Compound F108],,80 to 100,0 to 80,
COc1ccnc(C(=O)N[C@H]2CCC[C@H](Cc3ccccc3)[C@@H](OCC3CC3)[C@H](C)OC2=O)c1OCOC(=O)C(C)C [Compound F152],80 to 100,,80 to 100,
COc1ccnc(C(=O)N[C@H]2CCC[C@H](CC(F)F)[C@@H](Oc3ccccc3)[C@H](C)OC2=O)c1OCOC(C)=O [Compound F138],,,0 to 80,
CCCO[C@@H]1[C@@H](Cc2ccc(F)cc2)CCC[C@H](NC(=O)c2nccc(OC)c2OCOC(C)=O)C(=O)O[C@H]1C [Compound F101],80 to 100,,80 to 100,
CC[C@H]1CCC[C@H](NC(=O)c2nccc(OC)c2OC(C)=O)C(=O)O[C@@H](C)[C@@H]1Oc1ccccc1 [Compound F81],0 to 80,,0 to 80,
COc1ccnc(C(=O)N[C@H]2CCC[C@H](CCBr)[C@@H](Oc3ccccc3)[C@H](C)OC2=O)c1OC(C)=O [Compound F80],0 to 80,,0 to 80,
CCOCC(=O)OCOc1c(OC)ccnc1C(=O)N[C@H]1CCC[C@H](Cc2ccc(F)cc2)[C@@H](OCC(C)C)[C@H](C)OC1=O [Compound F168],,,80 to 100,
COc1ccnc(C(=O)N[C@H]2CCC[C@H](Cc3ccccc3)[C@@H](OCC3CC3)[C@H](C)OC2=O)c1OCOC(C)=O [Compound F107],80 to 100,,80 to 100,
COc1ccc(C[C@H]2CCC[C@H](NC(=O)c3nccc(OC)c3OCOC(C)=O)C(=O)O[C@@H](C)[C@@H]2OCC(C)C)cc1 [Compound F118],0 to 80,,,
COc1ccnc(C(=O)N[C@H]2CCC[C@H](CC(F)F)[C@@H](Oc3ccccc3)[C@H](C)OC2=O)c1OC(C)=O [Compound F82],,,0 to 80,
CCCO[C@@H]1[C@@H](Cc2ccc(OC)cc2)CCC[C@H](NC(=O)c2nccc(OC)c2OCOC(C)=O)C(=O)O[C@H]1C [Compound F119],0 to 80,,,
CCCO[C@@H]1[C@@H](Cc2ccc(F)cc2)CCC[C@H](NC(=O)c2nccc(OC)c2OCOC(=O)COCC)C(=O)O[C@H]1C [Compound F167],80 to 100,,80 to 100,
